Laboratory results: patent US20110301087A1, “CRF1 RECEPTOR COMPOUNDS” (priority 2008, published 2011)
Where a SMILES comes first, the peptide text is derived from it. [ ]: non-standard residue; d: D form. The star is where a group is joined. Palmitoyl = CCCCCCCCCCCCCCCC(=O)*; Nle = CCCC[C@H](N)C(=O)O

Target: T1, CRF1 (Homo sapiens, UniProt P34998)
T1 construct: endogenously expresses functional CRF1; endogenous in cells; host or cells: Y-79 human retinoblastoma cells
T1 sequence (P34998 24-415): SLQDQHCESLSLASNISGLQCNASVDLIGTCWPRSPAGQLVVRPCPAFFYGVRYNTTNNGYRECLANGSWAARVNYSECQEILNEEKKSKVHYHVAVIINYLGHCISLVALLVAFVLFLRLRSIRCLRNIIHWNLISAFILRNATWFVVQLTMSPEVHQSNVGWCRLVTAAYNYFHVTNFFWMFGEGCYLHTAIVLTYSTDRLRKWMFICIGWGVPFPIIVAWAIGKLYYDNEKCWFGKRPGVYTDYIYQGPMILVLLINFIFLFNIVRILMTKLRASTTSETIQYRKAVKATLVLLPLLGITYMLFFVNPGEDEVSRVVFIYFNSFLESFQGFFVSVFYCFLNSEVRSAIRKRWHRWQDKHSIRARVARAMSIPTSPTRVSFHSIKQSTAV
Experiment: CRF1 assessment of cAMP (HTRF cAMP assay) in Y-79 cells, antagonist mode
Type: cell-based
Details: Y79 cells; for IC50: CRF1 cAMP screening, against agonist; for inhibition at 0.3 µM: 300 nM pepducin against agonist dose response, read-out: % Inhibition (± SD)
Text: HTRF (homogeneous time resolved fluorescence) is a technology developed by Cisbio Bioassays based on TR-FRET (time-resolved fluorescence resonance energy transfer). Cisbio Bioassays has developed a wide selection of HTRF-based assays compatible with whole cells, thereby enabling functional assays run under more physiological conditions. cAMP kits are based on a competitive immunoassay using cryptate-labeled anti-cAMP antibody and d2-labeled cAMP. This assay allows the measurement of increase in intracellular cAMP upon Gs-coupled receptor activation as well as decrease in forskolin stimulated increase in cAMP upon Gi-coupled receptor activation. Cells expressing CRF1 endogenously or via transfection can be used to assess compound pharmacology using cAMP assays as a means to measure the activity of adenylyl cyclase resulting from CRF1 activation or inhibition.
An example of the use of the cAMP assay can be assessing CRF activation of CRF1 in Y-79, a human retinoblastoma cell line which endogenously expresses functional CRF1. Y-79 cells were seeded into 96-well half area black plates at 30K/well in Hank's balanced salt solution with 50 mM HEPES, 0.1% BSA, 200 uM IBMX. Compounds to be tested for agonist activity were added to cells, incubated for 30 minutes at 37 degrees C. and assayed for cAMP concentration. To test for antagonist activity, compounds to be tested were added to cells, followed by the addition of agonist at an experimentally determined optimal concentration, generally the EC80. Plates were incubated for 30 minutes at 37 degrees C. and assayed for cAMP. To determine concentration of cAMP in each well, d2-labeled cAMP in Conjugate/Lysis buffer was added to wells. This addition lysed the cells and input a known concentration of labeled cAMP. This was followed by the addition of anti-cAMP antibody conjugated to cryptate. FRET occurs when cryptate-labeled antibody binds to d2-labeled cAMP. Therefore, the specific signal is inversely proportional to the concentration of cAMP in the sample. Conversion of signal to concentration of cAMP in the well was accomplished by comparing the FRET signal of sample to a standard curve generated using known concentrations of cAMP.

SMILES | IC50 | inhibition at 0.3 µM
CCCCCCCCCCCCCCCC(=O)N[C@H](C(=O)N[C@@H](CC(=O)O)C(=O)N[C@@H](C)C(=O)N[C@@H](CC(C)C)C(=O)N[C@@H](CCCNC(=N)N)C(=O)N[C@@H](CCCCN)C(=O)N[C@@H](Cc1c[nH]c2ccccc12)C(=O)N[C@@H](CCSC)C(=O)N[C@@H](Cc1ccccc1)C(=O)N[C@H](C(N)=O)[C@@H](C)CC)[C@@H](C)O [Compound 46] (Palmitoyl-TDALRKWMFI-NH2) | > 10 µM | 58%
CCCCCCCCCCCCCCCC(=O)NCC(=O)N[C@@H](CO)C(=O)N[C@H](C(=O)N[C@@H](CC(=O)O)C(=O)N[C@@H](CCCNC(=N)N)C(=O)N[C@@H](CC(C)C)C(=O)N[C@@H](CCCNC(=N)N)C(=O)N[C@@H](CCCCN)C(=O)N[C@@H](Cc1c[nH]c2ccccc12)C(=O)N[C@@H](CCSC)C(=O)N[C@@H](Cc1ccccc1)C(=O)N[C@@H](C)C(N)=O)[C@@H](C)O [Compound 37] (Palmitoyl-GSTDRLRKWMFA-NH2) | 1 to 5 µM | 45 ± 19%
CCCCCCCCCCCCCCCC(=O)N[C@H](C(=O)N[C@@H](CC(=O)O)C(=O)N[C@@H](CCCNC(=N)N)C(=O)N[C@@H](CC(C)C)C(=O)N[C@@H](CCCNC(=N)N)C(=O)N[C@@H](CCCCN)C(=O)N[C@@H](Cc1c[nH]c2ccccc12)C(=O)N[C@@H](CCSC)C(=O)N[C@@H](Cc1ccccc1)C(=O)N[C@H](C(N)=O)[C@@H](C)CC)[C@@H](C)O [Compound 32, Pal-TDRLRKWMFI-amide] (Palmitoyl-TDRLRKWMFI-NH2) | 0.501 to 1 µM | 53 ± 9%
CCCCCCCCCCCCCCCC(=O)N[C@@H](CC(=O)O)C(=O)N[C@@H](CCCNC(=N)N)C(=O)N[C@@H](CC(C)C)C(=O)N[C@@H](CCCNC(=N)N)C(=O)N[C@@H](CCCCN)C(=O)N[C@@H](Cc1c[nH]c2ccccc12)C(=O)N[C@@H](CCSC)C(=O)N[C@@H](Cc1ccccc1)C(=O)N[C@H](C(N)=O)[C@@H](C)CC [Compound 31] (Palmitoyl-DRLRKWMFI-NH2) | 1 to 5 µM | 30 ± 17%
CCCCCCCCCCCCCCCC(=O)N[C@@H](Cc1ccc(O)cc1)C(=O)N[C@@H](CO)C(=O)N[C@H](C(=O)N[C@@H](CC(=O)O)C(=O)N[C@@H](CCCNC(=N)N)C(=O)N[C@@H](CC(C)C)C(=O)N[C@@H](CCCNC(=N)N)C(=O)N[C@@H](CCCCN)C(=O)N[C@@H](Cc1c[nH]c2ccccc12)C(=O)N[C@@H](CCSC)C(=O)N[C@@H](Cc1ccccc1)C(=O)N[C@H](C(N)=O)[C@@H](C)CC)[C@@H](C)O [Compound 34] (Palmitoyl-YSTDRLRKWMFI-NH2) | 0.501 to 1 µM | 21 ± 5%
CCCCCCCCCCCCCCCC(=O)N[C@@H](CCCNC(=N)N)C(=O)N[C@@H](CC(C)C)C(=O)N[C@@H](CCCNC(=N)N)C(=O)N[C@@H](CCCCN)C(=O)N[C@@H](Cc1c[nH]c2ccccc12)C(=O)N[C@@H](CCSC)C(=O)N[C@@H](C)C(=O)N[C@H](C(N)=O)[C@@H](C)CC [Compound 41] (Palmitoyl-RLRKWMAI-NH2) | 0.501 to 1 µM | 40%
CCCCCCCCCCCCCCCC(=O)N[C@@H](C)C(=O)N[C@@H](CC(=O)O)C(=O)N[C@@H](CCCNC(=N)N)C(=O)N[C@@H](CC(C)C)C(=O)N[C@@H](CCCNC(=N)N)C(=O)N[C@@H](CCCCN)C(=O)N[C@@H](Cc1c[nH]c2ccccc12)C(=O)N[C@@H](CCSC)C(=O)N[C@@H](Cc1ccccc1)C(=O)N[C@H](C(N)=O)[C@@H](C)CC [Compound 44] (Palmitoyl-ADRLRKWMFI-NH2) | > 10 µM | 42%
CCCCCCCCCCCCCCCC(=O)N[C@@H](CCCNC(=N)N)C(=O)N[C@@H](CC(C)C)C(=O)N[C@@H](CCCNC(=N)N)C(=O)N[C@@H](CCCCN)C(=O)N[C@@H](Cc1c[nH]c2ccccc12)C(=O)N[C@@H](CCSC)C(=O)N[C@@H](Cc1ccccc1)C(=O)N[C@H](C(N)=O)[C@@H](C)CC [Compound 30] (Palmitoyl-RLRKWMFI-NH2) | 1 to 5 µM | 39 ± 7%
CCCCCCCCCCCCCCCC(=O)NCC(=O)N[C@@H](CO)C(=O)N[C@H](C(=O)N[C@@H](CC(=O)O)C(=O)N[C@@H](CCCNC(=N)N)C(=O)N[C@@H](CC(C)C)C(=O)N[C@@H](CCCNC(=N)N)C(=O)N[C@@H](CCCCN)C(=O)N[C@@H](C)C(=O)N[C@@H](CCSC)C(=O)N[C@@H](Cc1ccccc1)C(=O)N[C@H](C(N)=O)[C@@H](C)CC)[C@@H](C)O [Compound 40] (Palmitoyl-GSTDRLRKAMFI-NH2) | 0.501 to 1 µM | 61 ± 20%
CCCCCCCCCCCCCCCC(=O)N[C@H](C(=O)N[C@@H](C)C(=O)N[C@@H](CCCNC(=N)N)C(=O)N[C@@H](CC(C)C)C(=O)N[C@@H](CCCNC(=N)N)C(=O)N[C@@H](CCCCN)C(=O)N[C@@H](Cc1c[nH]c2ccccc12)C(=O)N[C@@H](CCSC)C(=O)N[C@@H](Cc1ccccc1)C(=O)N[C@H](C(N)=O)[C@@H](C)CC)[C@@H](C)O [Compound 45] (Palmitoyl-TARLRKWMFI-NH2) | > 10 µM | 70%

The next lines start with the values.

IC50 | inhibition at 0.3 µM | SMILES
1 to 5 µM | 62% | CCCCCCCCCCCCCCCC(=O)N[C@H](C(=O)N[C@@H](CC(=O)O)C(=O)N[C@@H](CCCNC(=N)N)C(=O)N[C@@H](C)C(=O)N[C@@H](CCCNC(=N)N)C(=O)N[C@@H](CCCCN)C(=O)N[C@@H](Cc1c[nH]c2ccccc12)C(=O)N[C@@H](CCSC)C(=O)N[C@@H](Cc1ccccc1)C(=O)N[C@H](C(N)=O)[C@@H](C)CC)[C@@H](C)O [Compound 47] (Palmitoyl-TDRARKWMFI-NH2)
0.501 to 1 µM | 47 ± 7% | CCCCCCCCCCCCCCCC(=O)N[C@H](C(=O)N[C@@H](CC(=O)O)C(=O)N[C@@H](CCCNC(=N)N)C(=O)N[C@@H](CC(C)C)C(=O)N[C@@H](CCCNC(=N)N)C(=O)N[C@@H](CCCCN)C(=O)N[C@@H](Cc1c[nH]c2ccccc12)C(=O)N[C@@H](C)C(=O)N[C@@H](Cc1ccccc1)C(=O)N[C@H](C(N)=O)[C@@H](C)CC)[C@@H](C)O [Compound 51] (Palmitoyl-TDRLRKWAFI-NH2)
> 10 µM | 70% | CCCCCCCCCCCCCCCC(=O)N[C@H](C(=O)N[C@@H](CC(=O)O)C(=O)N[C@@H](CCCNC(=N)N)C(=O)N[C@@H](CC(C)C)C(=O)N[C@@H](CCCNC(=N)N)C(=O)N[C@@H](CCCCN)C(=O)N[C@@H](Cc1c[nH]c2ccccc12)C(=O)N[C@@H](CCSC)C(=O)N[C@@H](Cc1ccccc1)C(=O)N[C@@H](C)C(N)=O)[C@@H](C)O [Compound 52] (Palmitoyl-TDRLRKWMFA-NH2)
– | 55 ± 7% | CCCCCCCCCCCCCCCC(=O)N[C@H](C(=O)N[C@@H](CC(=O)O)C(=O)N[C@@H](CCCNC(=N)N)C(=O)N[C@@H](CC(C)C)C(=O)N[C@@H](CCCNC(=N)N)C(=O)N[C@@H](CCCCN)C(=O)N[C@@H](Cc1c[nH]c2ccccc12)C(=O)N[C@@H](CCCC)C(=O)N[C@@H](Cc1ccccc1)C(=O)N[C@H](C(N)=O)[C@@H](C)CC)[C@@H](C)O [Compound 54] (Palmitoyl-TDRLRKW[Nle]FI-NH2)
